Several values for one entry are separate records, joined by “and”; a condition that tells them apart may be missing. Equal values may be shown once. Read-outs that look alike come from different tables or passages of the source.
Target: T1, GPR139 (Homo sapiens, UniProt Q6DWJ6)
T1 sequence (Q6DWJ6 1-353): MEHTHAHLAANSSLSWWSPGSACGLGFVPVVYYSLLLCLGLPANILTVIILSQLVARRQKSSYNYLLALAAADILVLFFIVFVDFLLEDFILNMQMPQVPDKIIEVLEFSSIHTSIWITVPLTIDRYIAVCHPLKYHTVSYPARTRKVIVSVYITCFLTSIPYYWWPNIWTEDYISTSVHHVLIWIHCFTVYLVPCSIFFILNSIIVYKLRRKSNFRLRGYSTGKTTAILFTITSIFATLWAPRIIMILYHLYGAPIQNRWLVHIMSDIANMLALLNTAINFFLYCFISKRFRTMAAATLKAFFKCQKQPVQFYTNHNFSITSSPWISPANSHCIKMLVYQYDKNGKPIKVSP
Experiment: Ca2+ mobilization assay, agonist mode, stable GPR139-CHOk1 cell line
Assay type: cell-based
Conditions: for Emax: normalized to Lundbeck Cmp 1a
Method in brief: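 Agonist activity of compounds is assessed in stably transfected CHO-K1 cells using the calcium dye Fluo-4 at 37 °C in HEPES-buffered HBSS (pH 7.4). Efficacy is expressed relative to the reference agonist Lundbeck Cmp 1a, set as 100%.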

[1] = Agonist mode, individual replicates (Supplementary Figure 4)
[2] = Supplementary Table 2, mean ± SEM, read-out: Emax (%) Ca2+
[3] = log [Compound] M = -4.5, individual replicate columns
[4] = log [Compound] M = -5.0, individual replicate columns
[5] = log [Compound] M = -5.5, individual replicate columns
[6] = log [Compound] M = -6.0, individual replicate columns
[7] = log [Compound] M = -6.5, individual replicate columns
[8] = log [Compound] M = -7.0, individual replicate columns
[9] = log [Compound] M = -7.5, individual replicate columns
[10] = log [Compound] M = -8.0, individual replicate columns
[11] = log [Compound] M = -8.5, individual replicate columns
[12] = log [Compound] M = -9.0, individual replicate columns
[13] = GPR139-CHOk1, read-out: EC50, Ca2+ mobilization
[14] = Supplementary Table 7, enantiopure compounds, read-out: pEC50, Ca2+ mobilization (converted)

Structure (SMILES) | Ca2+ signal (% of Cmp 1a) [1] | Emax [2] | Ca2+ signal (% of Cmp 1a) [3] | Ca2+ signal (% of Cmp 1a) [4] | Ca2+ signal (% of Cmp 1a) [5] | Ca2+ signal (% of Cmp 1a) [6] | Ca2+ signal (% of Cmp 1a) [7] | Ca2+ signal (% of Cmp 1a) [8] | Ca2+ signal (% of Cmp 1a) [9] | Ca2+ signal (% of Cmp 1a) [10] | Ca2+ signal (% of Cmp 1a) [11] | Ca2+ signal (% of Cmp 1a) [12] | EC50 [13] | EC50 [14] | also measured
Cc1cc(-c2nc(CC(=O)NC(C)c3ccccc3)no2)n(C)n1 (stereo not drawn) [Compound 1.16, CC(C1=CC=CC=C1)NC(CC2=NOC(C3=CC(C)=NN3C)=N2)=O] | 103 % of Cmp 1a and 82 % of Cmp 1a and 85 % of Cmp 1a | 93 ± 11% | 93 % of Cmp 1a and 107 % of Cmp 1a and 110 % of Cmp 1a and 60 % of Cmp 1a | 86 % of Cmp 1a and 100 % of Cmp 1a and 83 % of Cmp 1a and 67 % of Cmp 1a | 73 % of Cmp 1a and 90 % of Cmp 1a and 92 % of Cmp 1a and 46 % of Cmp 1a | 52 % of Cmp 1a and 66 % of Cmp 1a and 72 % of Cmp 1a and 20 % of Cmp 1a | 27 % of Cmp 1a and 50 % of Cmp 1a and 60 % of Cmp 1a and -0.5 % of Cmp 1a | 9 % of Cmp 1a and 39 % of Cmp 1a and 26 % of Cmp 1a and -9.5 % of Cmp 1a | 0.333 % of Cmp 1a and 7 % of Cmp 1a and 17 % of Cmp 1a and 1.5 % of Cmp 1a | -3 % of Cmp 1a (2×) and -1 % of Cmp 1a and 9 % of Cmp 1a | 0 % of Cmp 1a and -5 % of Cmp 1a and 15 % of Cmp 1a and -2.5 % of Cmp 1a | 1.67 % of Cmp 1a and -3 % of Cmp 1a and 20 % of Cmp 1a and -7 % of Cmp 1a | – | – | EC50 (Supplementary Table 2, mean ± SEM, read-out: pEC50 Ca2+ (converted)): 631 nM
COc1cc(OC)cc(C(=O)NNC(=O)Nc2cccc3ccccc23)c1 [Lundbeck Cmp 1a, reference compound] | – | 108 ± 3% | – | – | – | – | – | – | – | – | – | – | 200 nM | 158 nM | Ca2+ signal (% of Cmp 1a) (log [Compound] M -4.5, replicate experiments): 104 % of Cmp 1a and 101 % of Cmp 1a and 98 % of Cmp 1a and 116 % of Cmp 1a and 117 % of Cmp 1a and 88 % of Cmp 1a and 112 % of Cmp 1a and 95 % of Cmp 1a and 103 % of Cmp 1a and 94 % of Cmp 1a; Ca2+ signal (% of Cmp 1a) (log [Compound] M -5.0, replicate experiments): 104 % of Cmp 1a and 115 % of Cmp 1a and 107 % of Cmp 1a and 118 % of Cmp 1a and 110 % of Cmp 1a and 88 % of Cmp 1a and 112 % of Cmp 1a and 119 % of Cmp 1a; Ca2+ signal (% of Cmp 1a) (log [Compound] M -5.5, replicate experiments): 96 % of Cmp 1a and 113 % of Cmp 1a and 100 % of Cmp 1a and 95 % of Cmp 1a and 84 % of Cmp 1a and 88 % of Cmp 1a and 114 % of Cmp 1a and 103 % of Cmp 1a and 108 % of Cmp 1a and 126 % of Cmp 1a; Ca2+ signal (% of Cmp 1a) (log [Compound] M -6.0, replicate experiments): 81 % of Cmp 1a and 96 % of Cmp 1a and 87 % of Cmp 1a and 69 % of Cmp 1a and 82 % of Cmp 1a and 73 % of Cmp 1a and 84 % of Cmp 1a and 75 % of Cmp 1a and 88 % of Cmp 1a and 109 % of Cmp 1a; Ca2+ signal (% of Cmp 1a) (log [Compound] M -6.5, replicate experiments): 63 % of Cmp 1a and 62 % of Cmp 1a and 65 % of Cmp 1a and 67 % of Cmp 1a and 53 % of Cmp 1a and 60 % of Cmp 1a and 76 % of Cmp 1a and 64 % of Cmp 1a and 68 % of Cmp 1a; Ca2+ signal (% of Cmp 1a) (log [Compound] M -7.0, replicate experiments): 38 % of Cmp 1a (2×) and 39 % of Cmp 1a; Ca2+ signal (% of Cmp 1a) (log [Compound] M -7.5, replicate experiments): 20 % of Cmp 1a and 15 % of Cmp 1a and 23 % of Cmp 1a and 11 % of Cmp 1a and 2.33 % of Cmp 1a and 22 % of Cmp 1a and 19 % of Cmp 1a and 29 % of Cmp 1a and 16 % of Cmp 1a and 35 % of Cmp 1a; Ca2+ signal (% of Cmp 1a) (log [Compound] M -8.0, replicate experiments): 1.56 % of Cmp 1a and 5 % of Cmp 1a and 17 % of Cmp 1a and -13 % of Cmp 1a and 8 % of Cmp 1a and 12 % of Cmp 1a and 9 % of Cmp 1a and 3 % of Cmp 1a and 6.33 % of Cmp 1a; Ca2+ signal (% of Cmp 1a) (log [Compound] M -8.5, replicate experiments): -0.447 % of Cmp 1a and 1.52 % of Cmp 1a and 10 % of Cmp 1a and -20 % of Cmp 1a and 2.33 % of Cmp 1a and 11 % of Cmp 1a and 4.67 % of Cmp 1a and -2 % of Cmp 1a and -1 % of Cmp 1a and 5 % of Cmp 1a and 23 % of Cmp 1a; Ca2+ signal (% of Cmp 1a) (log [Compound] M -9.0, replicate experiments): -1.54 % of Cmp 1a and 0.497 % of Cmp 1a and 16 % of Cmp 1a and -12 % of Cmp 1a and 8 % of Cmp 1a and 9 % of Cmp 1a and 3.33 % of Cmp 1a and 13 % of Cmp 1a and 11 % of Cmp 1a
Cc1nocc1-c1nc(CC(=O)NC(C)c2ccccc2)no1 (stereo not drawn) [Compound 1.5, CC(C1=CC=CC=C1)NC(CC2=NOC(C3=CON=C3C)=N2)=O] | 113 % of Cmp 1a and 100 % of Cmp 1a and 116 % of Cmp 1a | 103 ± 6% | 80 % of Cmp 1a and 113 % of Cmp 1a and 109 % of Cmp 1a and 101 % of Cmp 1a | 104 % of Cmp 1a and 119 % of Cmp 1a and 100 % of Cmp 1a and 95 % of Cmp 1a | 91 % of Cmp 1a and 108 % of Cmp 1a and 100 % of Cmp 1a and 85 % of Cmp 1a | 78 % of Cmp 1a and 79 % of Cmp 1a and 91 % of Cmp 1a and 81 % of Cmp 1a | 55 % of Cmp 1a and 74 % of Cmp 1a and 73 % of Cmp 1a and 76 % of Cmp 1a | 36 % of Cmp 1a and 45 % of Cmp 1a and 52 % of Cmp 1a and 57 % of Cmp 1a | 14 % of Cmp 1a and 3.67 % of Cmp 1a and 9 % of Cmp 1a and 12 % of Cmp 1a | 17 % of Cmp 1a and 2 % of Cmp 1a and 47 % of Cmp 1a and -11 % of Cmp 1a | 10 % of Cmp 1a and -6.33 % of Cmp 1a and 1 % of Cmp 1a and -17 % of Cmp 1a | -2.67 % of Cmp 1a and 0.333 % of Cmp 1a and -5 % of Cmp 1a and -15 % of Cmp 1a | 130 nM | – | –
C[C@@H](NC(=O)CNC(=O)c1cccc(Cl)c1)c1ccccc1 [JNJ(R), reference compound] | – | – | – | – | – | – | – | – | – | – | – | – | – | 3160 nM | Emax (Supplementary Table 7, read-out: Emax (%), Ca2+ mobilization): 99 ± 5%; Ca2+ signal (% of Cmp 1a) (log [Compound] M -8.5, individual replicates): -4.33 % of Cmp 1a and 7 % of Cmp 1a and -3.33 % of Cmp 1a; Ca2+ signal (% of Cmp 1a) (log [Compound] M -9.0, individual replicates): -1.33 % of Cmp 1a and 6 % of Cmp 1a and -7 % of Cmp 1a; Ca2+ signal (% of Cmp 1a) (log [Compound] M -12.0, individual replicates): 0 % of Cmp 1a; Ca2+ signal (% of Cmp 1a) (log [compound] M -4.5, individual replicates): 84 % of Cmp 1a and 100 % of Cmp 1a and 82 % of Cmp 1a; Ca2+ signal (% of Cmp 1a) (log [compound] M -5.0, individual replicates): 66 % of Cmp 1a and 88 % of Cmp 1a and 60 % of Cmp 1a; Ca2+ signal (% of Cmp 1a) (log [compound] M -5.5, individual replicates): 49 % of Cmp 1a and 72 % of Cmp 1a and 33 % of Cmp 1a; Ca2+ signal (% of Cmp 1a) (log [compound] M -6.0, individual replicates): 28 % of Cmp 1a and 43 % of Cmp 1a and 16 % of Cmp 1a; Ca2+ signal (% of Cmp 1a) (log [compound] M -6.5, individual replicates): 13 % of Cmp 1a and 14 % of Cmp 1a and -2 % of Cmp 1a; Ca2+ signal (% of Cmp 1a) (log [compound] M -7.0, individual replicates): 4.33 % of Cmp 1a and 9 % of Cmp 1a and -10 % of Cmp 1a; Ca2+ signal (% of Cmp 1a) (log [compound] M -7.5, individual replicates): 11 % of Cmp 1a and 3.67 % of Cmp 1a and -10 % of Cmp 1a; Ca2+ signal (% of Cmp 1a) (log [compound] M -8.0, individual replicates): 5.33 % of Cmp 1a (2×) and -13 % of Cmp 1a
COc1ccccc1-c1nc(CC(=O)NC(C)c2ccccc2)no1 (stereo not drawn) [Compound 1.2, COC1=C(C2=NC(CC(NC(C3=CC=CC=C3)C)=O)=NO2)C=CC=C1] | 84 % of Cmp 1a and 90 % of Cmp 1a and 64 % of Cmp 1a | 116 ± 6% | 101 % of Cmp 1a and 98 % of Cmp 1a and 89 % of Cmp 1a and 111 % of Cmp 1a and 113 % of Cmp 1a | 95 % of Cmp 1a and 88 % of Cmp 1a and 96 % of Cmp 1a and 108 % of Cmp 1a (2×) | 86 % of Cmp 1a and 100 % of Cmp 1a and 98 % of Cmp 1a and 101 % of Cmp 1a and 103 % of Cmp 1a | 77 % of Cmp 1a (2×) and 83 % of Cmp 1a and 90 % of Cmp 1a and 93 % of Cmp 1a | 65 % of Cmp 1a and 81 % of Cmp 1a and 77 % of Cmp 1a and 70 % of Cmp 1a and 86 % of Cmp 1a | 63 % of Cmp 1a (2×) and 64 % of Cmp 1a and 53 % of Cmp 1a and 56 % of Cmp 1a | 46 % of Cmp 1a and 38 % of Cmp 1a and 39 % of Cmp 1a and 41 % of Cmp 1a and 52 % of Cmp 1a | 14 % of Cmp 1a and 11 % of Cmp 1a (2×) and 15 % of Cmp 1a and 18 % of Cmp 1a | 3.23 % of Cmp 1a and -2.25 % of Cmp 1a and 2.37 % of Cmp 1a and 7.37 % of Cmp 1a and 3.35 % of Cmp 1a | 5 % of Cmp 1a and -0.0349 % of Cmp 1a and -0.541 % of Cmp 1a and 0.358 % of Cmp 1a and 0.331 % of Cmp 1a | 50 nM | – | fold improved potency compared to compound 1 (Ca2+ mobilization EC50): 3 fold

— article PMC12775434, “Ultra-large virtual screening unveils potent agonists of the neuromodulatory orphan receptor GPR139” (Nature Communications, 2025)
